Key:
[1] = target: T1, glutathione-S-transferase (GST) tagged LXRbeta LBD (ligand binding domain) (Homo sapiens, UniProt P55055); test: LanthaScreen TR-FRET Liver X Receptor Coactivator Assay, LXR beta; format: biochemical; conditions: for Emax: efficacy (Emax) in relation to reference dual agonist T0901317, read-out: LXR beta actiivty at max dose (%); for EC50: potency (Inflection Point) of compound-induced co-activator recruitment, TR-FRET, read-out: LXR beta IP
T1 construct: purchased Invitrogen pv4658.pps
T1 sequence (P55055 222-460 limits assumed): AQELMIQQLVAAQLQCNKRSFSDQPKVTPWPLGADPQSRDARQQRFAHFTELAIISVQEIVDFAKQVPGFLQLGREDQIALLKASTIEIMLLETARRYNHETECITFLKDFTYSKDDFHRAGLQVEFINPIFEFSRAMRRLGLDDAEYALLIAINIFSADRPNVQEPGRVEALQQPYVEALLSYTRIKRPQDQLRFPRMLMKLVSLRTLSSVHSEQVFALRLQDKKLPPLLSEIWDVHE
Experimental: (§1) While running the LanthaScreen™ TR-FRET Liver X Receptor Coactivator Assay, LXR alpha-LBD or LXR beta-LBD was added to ligand test compounds followed by addition of a mixture of a fluorescein-labelled coactivator peptide and terbium-conjugated anti-GST antibody. After an incubation period at room temperature, TR-FRET (time-resolved fluorescence resonance energy transfer) was measured using a filter-based instrument capable of TR-FRET, e.g. PerkinElmer Envision.

[2] = target: T2, glutathione-S-transferase (GST) tagged LXRalpha LBD (ligand binding domain) (Homo sapiens, UniProt Q13133); test: LanthaScreen TR-FRET Liver X Receptor Coactivator Assay, LXR alpha; format: biochemical; conditions: for Emax: efficacy (Emax) in relation to reference dual agonist T0901317, read-out: LXR alpha actiivty at max dose (%); for EC50 / LXR alpha IP (nM): potency (Inflection Point) of compound-induced co-activator recruitment, TR-FRET; for EC50: read-out: LXR alpha IP
T2 construct: purchased Invitrogen pv4655
T2 sequence (Q13133 209-447 limits assumed): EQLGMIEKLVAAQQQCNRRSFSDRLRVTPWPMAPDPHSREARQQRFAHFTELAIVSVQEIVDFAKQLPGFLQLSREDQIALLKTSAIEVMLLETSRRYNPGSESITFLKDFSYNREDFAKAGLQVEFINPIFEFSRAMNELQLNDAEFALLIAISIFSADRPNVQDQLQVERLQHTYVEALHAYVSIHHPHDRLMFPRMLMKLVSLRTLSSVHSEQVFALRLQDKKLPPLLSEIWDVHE
Experimental: as §1

Emax [1] | EC50 [1] | Emax [2] | EC50 [2] | LXR alpha IP (nM) [2] | Structure (SMILES)
30% | 0.015 µM | 21% | 0.828 µM |  | CN(C)C(=O)c1ccc(NCCC[C@@H]2CC23CCN(C(=O)[C@](O)(c2ccccc2)C(F)(F)F)CC3)cc1Cl (single isomer, unassigned) [Example 6-1, 2-chloro-N,N-dimethyl-4-(3-((R or S)-6-((R or S)-3,3,3-trifluoro-2-hydroxy-2-phenylpropanoyl)-6-azaspiro[2.5]octan-1-yl)propylamino)benzamide]
80% | 0.029 µM | 22% | 0.797 µM |  | CN(C)C(=O)c1ccc(N(C)CCC2CC23CCN(C(=O)C(C)(C)c2ccccc2)CC3)cc1Cl (single isomer, unassigned) [Example 9-1, (S or R)-2-chloro-N,N-dimethyl-4-(methyl(2-(6-(2-methyl-2-phenylpropanoyl)-6-azaspiro[2.5]octan-1-yl)ethyl)amino)benzamide]
99% | 1.26 µM | 33% | 15.5 µM |  | CN(Cc1ccc(C(=O)N(C)C)c(Cl)c1)CC1CC12CCN(C(=O)C(C)(C)c1ccccc1)CC2 (centres unmarked) [Example 14-1, 2-chloro-N,N-dimethyl-4-((methyl((6-(2-methyl-2-phenylpropanoyl)-6-azaspiro[2.5]octan-1-yl)methyl)amino)methyl)benzamide]
91% | 0.009 µM | 65% | 0.829 µM |  | CNC(=O)c1ccc(NCCC[C@@H]2CC23CCN(C(=O)[C@@](O)(C(C)C)C(F)(F)F)CC3)cc1Cl (single isomer, unassigned) [Example 6-8, 2-chloro-4-(3-((R or S)-6-((S or R)-2-hydroxy-3-methyl-2-(trifluoromethyl)butanoyl)-6-azaspiro[2.5]octan-1-yl)propylamino)-N-methylbenzamide]
103% | 0.059 µM | 28% | 0.683 µM |  | CN(C)C(=O)c1ccc(N(C)CCC[C@@H]2CC23CCN(C(=O)[C@](O)(c2ccccc2)C(F)(F)F)CC3)cc1Cl (single isomer, unassigned) [Example 7-1, 2-chloro-N,N-dimethyl-4-(methyl(3-((R or S)-6-((R or S)-3,3,3-trifluoro-2-hydroxy-2-phenylpropanoyl)-6-azaspiro[2.5]octan-1-yl)propyl)amino)benzamide]
113% | 0.059 µM | 29% | 0.772 µM |  | CN(C)C(=O)c1ccc(CCCC2CC3(CCN(C(=O)C(O)(c4ccccc4)C(F)(F)F)CC3)C2)cc1Cl (single isomer, unassigned) [Example 16-2, 2-chloro-N,N-dimethyl-4-(3-(7-((R or S)-3,3,3-trifluoro-2-hydroxy-2-phenylpropanoyl)-7-azaspiro[3.5]nonan-2-yl)propyl)benzamide]
52% | 0.004 µM | 12% |  | No IP | CCc1cccc(C(O)(C(=O)N2CCC(CCCCNc3ccc(C(=O)NC)c(Cl)c3)CC2)C(F)(F)F)c1 (single isomer, unassigned) [Example 1-8, (S or R)-2-chloro-4-(4-(1-(2-(3-ethylphenyl)-3,3,3-trifluoro-2-hydroxypropanoyl)piperidin-4-yl)butylamino)-N-methylbenzamide]
43% | 0.049 µM | 0% |  | No IP | CN(C(=O)c1ccc(NCCC[C@@H]2CC23CCN(C(=O)[C@](O)(c2ccccc2)C(F)(F)F)CC3)cc1Cl)C1CC1 (single isomer, unassigned) [Example 6-6, 2-chloro-N-cyclopropyl-N-methyl-4-(3-((R or S)-6-((R or S)-3,3,3-trifluoro-2-hydroxy-2-phenylpropanoyl)-6-azaspiro[2.5]octan-1-yl)propylamino)benzamide]

— patent US10894775B2, “Piperidine derivatives as liver X receptor beta agonists, compositions, and their use” (Merck Sharp & Dohme Corp., priority 2016, dated 2021)
